Measured values published in article PMC12543283, “TastepepAI: An artificial intelligence platform for taste peptide de novo design” (PLOS Computational Biology, 2025).
Ends that are not written are not given here.

Columns and labels:
[1] = system: human umbilical vein endothelial cells (HUVEC)
[2] = system: human pancreatic ductal epithelial cells (HPNE)
[3] = Electronic tongue analysis (Taste-Sensing System SA 402B); design: unit not given here; conditions: reference solution 30 mM KCl + 0.3 mM tartaric acid as baseline, first measurement excluded; for Umami: sensor AAE; for Umami / Bitter / Sweet: detection threshold 0, room temperature; for Umami / Bitter / Sour / Salty: four replicates; for Sour: detection threshold -13, room temperature; for Salty: detection threshold -6, room temperature; for Sweet: measured five times
Protocol: Taste characteristics were analyzed using the electronic tongue system E-tongue (Taste-Sensing System SA 402B, Intelligent Sensor Technology Co. Ltd., Japan). The system was equipped with five specific sensor probes for detecting sourness (CA0), saltiness (CT0), bitterness (C00), sweetness (GL1), and umami (AAE). Samples were tested at concentrations of 0.1 mg/mL and 1.0 mg/mL. Prior to experiments, sensors were activated by immersion in a reference solution (30 mM KCl and 0.3 mM tartaric acid) for 24 h. A 30 min self-diagnostic procedure was performed before each measurement to ensure data accuracy. The reference solution served both as a cleaning solution and standard solution for taste signal calibration. According to the manufacturer’s instructions, using the reference solution as baseline, the detection thresholds were set at −13 for sourness, −6 for saltiness, and 0 for other taste modalities. Two cleaning solutions were employed for electrode maintenance: (1) 30% ethanol solution containing 100 mM HCl for negative charge reference electrodes, and (2) 30% ethanol solution containing 100 mM KCl and 10 mM KOH for positive charge reference electrodes. All taste measurements were performed at room temperature with four replicates, except for sweetness which was measured five times. The first measurement data were excluded from analysis.

[4] = system: human bronchial epithelial cells (BEAS-2B)
[5] = system: human embryonic kidney cells (HEK293T)

| Substance | Average cell viability, HUVEC [1] | Cell viability, HUVEC, Data1 [1] | Cell viability, HUVEC, Data2 [1] | Cell viability, HUVEC, Data3 [1] | Average cell viability, HPNE [2] | Cell viability, HPNE, Data1 [2] | Cell viability, HPNE, Data2 [2] | Cell viability, HPNE, Data3 [2] | Umami ([3]; peptide 0.1 mg/mL) | Umami ([3]; peptide 1 mg/mL) | Bitter ([3]; sensor C00, peptide 0.1 mg/mL) | Bitter ([3]; sensor C00, peptide 1 mg/mL) | Sour ([3]; sensor CA0, peptide 0.1 mg/mL) | Sour ([3]; sensor CA0, peptide 1 mg/mL) | Salty ([3]; sensor CT0, peptide 0.1 mg/mL) | Salty ([3]; sensor CT0, peptide 1 mg/mL) | Sweet ([3]; sensor GL1, peptide 0.1 mg/mL) | Sweet ([3]; sensor GL1, peptide 1 mg/mL) | Average cell viability, BEAS-2B [4] | Cell viability, BEAS-2B, Data1 [4] | other results |
| --- | --- | --- | --- | --- | --- | --- | --- | --- | --- | --- | --- | --- | --- | --- | --- | --- | --- | --- | --- | --- | --- |
| AEDNSL [TaPep43] | 103.73 | 104.42 | 115.43 | 91.33 | 110.25 | 117.40 | 99.83 | 113.51 | 1.07 | -5.11 | 7.83 | 4.00 | -1.87 | 12.46 | -20.35 | 7.60 | 5.59 | -3.45 | 108.94 | 119.14 | Cell viability, BEAS-2B, Data2 [4]: 93.72; Cell viability, BEAS-2B, Data3 [4]: 113.96; Average cell viability, HEK293T [5]: 98.86; Cell viability, HEK293T, Data1 [5]: 96.72; Cell viability, HEK293T, Data2 [5]: 102.11; Cell viability, HEK293T, Data3 [5]: 97.76 |
| AGDAW [TaPep30] | 102.13 | 114.08 | 97.39 | 94.92 | 103.96 | 100.43 | 106.72 | 104.73 | 1.69 | -4.59 | 7.53 | 3.18 | -3.43 | 12.02 | -20.28 | 11.18 | 5.66 | -6.46 | 116.78 | 115.45 | Cell viability, BEAS-2B, Data2 [4]: 115.55; Cell viability, BEAS-2B, Data3 [4]: 119.34; Average cell viability, HEK293T [5]: 110.47; Cell viability, HEK293T, Data1 [5]: 112.62; Cell viability, HEK293T, Data2 [5]: 114.23; Cell viability, HEK293T, Data3 [5]: 104.57 |
| AKDEKEL [TaPep1] | 97.71 | 96.99 | 94.60 | 101.54 | 94.74 | 92.35 | 92.15 | 99.73 | 2.15 | -3.64 | 10.96 | 3.53 | -4.53 | 9.07 | -19.14 | 13.72 | 6.22 | -3.13 | 108.54 | 105.88 | Cell viability, BEAS-2B, Data2 [4]: 114.46; Cell viability, BEAS-2B, Data3 [4]: 105.28; Average cell viability, HEK293T [5]: 101.23; Cell viability, HEK293T, Data1 [5]: 110.16; Cell viability, HEK293T, Data2 [5]: 98.99; Cell viability, HEK293T, Data3 [5]: 94.54 |
| ANGPE [TaPep69] | 102.58 | 91.72 | 108.65 | 107.37 | 101.93 | 107.52 | 97.94 | 100.33 | 1.23 | -4.62 | 7.32 | 3.75 | -2.38 | 11.54 | -19.29 | 9.06 | 5.65 | -4.24 | 106.78 | 116.65 | Cell viability, BEAS-2B, Data2 [4]: 94.82; Cell viability, BEAS-2B, Data3 [4]: 108.87; Average cell viability, HEK293T [5]: 99.97; Cell viability, HEK293T, Data1 [5]: 100.13; Cell viability, HEK293T, Data2 [5]: 102.30; Cell viability, HEK293T, Data3 [5]: 97.48 |
| APEELDA [TaPep36] | 101.78 | 93.96 | 95.80 | 115.59 | 113.58 | 114.11 | 111.61 | 115.01 | 0.55 | -6.54 | 7.85 | 3.11 | -0.61 | 17.06 | -18.92 | 13.68 | 5.62 | -8.13 | 102.92 | 111.17 | Cell viability, BEAS-2B, Data2 [4]: 103.39; Cell viability, BEAS-2B, Data3 [4]: 94.22; Average cell viability, HEK293T [5]: 103.41; Cell viability, HEK293T, Data1 [5]: 103.44; Cell viability, HEK293T, Data2 [5]: 102.11; Cell viability, HEK293T, Data3 [5]: 104.67 |
